Entries after “also recorded” stand apart in the source; their conditions may differ.
Columns and labels:
TGT homodimer = test system: T1, TGT homodimer; assay: Native ESI-MS of TGT:ligand 1:10 mixtures (dimer destabilization); design: species or system Zymomonas mobilis; details: for Relative proportion of TGT monomers: 2.5 µM TGT and 25 µM inhibitor (1:10), 1 M NH4Ac pH 7.5, without ligand 3.3 ± 0.7 %; for effect on TGT dimer stability / monomer proportion, in words: compared to measurements in the absence of any ligand, TGT:ligand 1:10
T1 construct: Strep-tag II (N, cleaved yes); made in house; host or cells: Escherichia coli
Method: In order to gain insights into the dimer disturbing potential seen in the crystal structures with the different ligands and to collect evidence for such a behavior also present in solution, native ESI-MS was performed. This technique enables to monitor the oligomerization state of TGT at equilibrium under non-denaturing conditions, in the absence or presence of saturating ligand concentrations. […] To ensure reliability, these comparative experiments were thus carried out adhering to strictly similar conditions (see Materials and methods).
Relative proportions of TGT-monomer signals extracted from individual 1:10 TGT:ligand mixtures (TGT monomer 2.5 μM) were quantified (S7 Fig, S1 Table) and normalized with respect to this value in the absence of any inhibitor.
Nano-ESI-MS analyses were performed as already described in the literature. Briefly, WT-TGT samples were exchanged twice against a 1 M ammonium acetate pH 7.5 buffer using microcentrifuge gel-filtration columns (Zeba 0.5 mL, Thermo Scientific). Next, protein concentration was determined spectrophotometrically at 280 nm (Nano-Drop 2000 spectrophotometer, Thermo Scientific).
Native MS experiments were carried out on a hybrid Q-TOF mass spectrometer (Synapt G2 HDMS, Waters) equipped with an automated chip-based nanoESI source (Triversa Nanomate, Advion Biosciences) operating in the positive ion mode. External calibrations were generated from the multiple charged ions produced by a 2 μM horse heart myoglobin solution diluted in a 1:1 (v/v) water: acetonitrile mixture acidified with 1% (v/v) formic acid (denaturing MS) and singly charged cesium iodide clusters diluted to 2 g∙L^-1 in a 1:1 (v/v) water: isopropanol solution (native MS).
Titration experiments in native conditions (1 M NH4Ac pH 7.5) were next triggered by mixing 2.5 μM TGT monomers with 25 μM of each ligand separately (ratio 1:10). The final DMSO concentration of each mixture never exceeded 0.25% (v/v). Non-covalent TGT dimers and TGT-ligand complexes were preserved in the gas phase according fine-tuned instrumental parameters, improving ion desolvation and transmission while maintaining intact structures (Vc = 80V, Pi = 6 mbar).
Relative quantification of TGT monomers was performed from charge states peak intensities of both monomeric (10 to 14+) and dimeric complexes (15 to 20+), using MassLynx 4.1 (Waters). TGT dimer disruption was determined for each ligand through their destabilization factor (Fig 8) which corresponds to their associated ratio of TGT monomers normalized from the apo-condition (S7 Fig; S1 Table). Standard deviations are calculated here from analytical triplicates. For the sake of reliability and comparability, all these experiments were performed within the same day, from identical experimental and instrumental conditions using the same buffer exchanged TGT batch (frozen and thawed only once).

Z. mobilis TGT [1] = molecular target: T2, Z. mobilis TGT (Zymomonas mobilis subsp. mobilis, UniProt P28720); details: cited from earlier work; for Ki / affinity as described in words: radio-labeled assay, determined previously
T2 construct: Strep-tag II (N, cleaved yes); made in house; host or cells: Escherichia coli

Z. mobilis TGT [2] = molecular target: T2, Z. mobilis TGT; assay: Isothermal titration calorimetry (ITC) of ligand binding to TGT; details: for thermodynamic binding signature in words / Kd / ΔG^0: ITC; for Kd: 298 K, direct titration; for ΔG^0: calculated at 298.15 K; for ΔH^0bind: ionization corrected (intercept of ΔH^0obs vs buffer ΔH^0ion); for -TΔΔS^0 / ΔΔH^0: relative to 1 used as reference; for protons picked up during binding: slope of linear regression, average over inhibitors 2 and 5
Description: To further analyze the binding properties of ligands studied in this contribution we decided to establish the thermodynamic analysis of a representative subset via isothermal titration calorimetry (ITC) (data for 1 had been determined previously). ITC enables the simultaneous determination of affinity (Kd) and stoichiometry (n) as well as enthalpic contribution (ΔH^0). The entropic (-TΔS^0) term to Gibbs free energy (ΔG^0 = ΔH^0—TΔS^0) results from ΔG^0–ΔH^0 difference. Due to insufficient availability of some compounds in high purity, quantity and sufficient solubility to perform proper ITC measurements, we decided to focus our investigation on 1, 2, 3 and 5.
We recently discovered that the binding of lin-benzoguanine derivatives is associated with protonation effects that are superimposed to the heat signal of ligand binding to TGT. […] Such protonation effects become transparent when ITC measurements are performed from at least three different buffers (see Materials and methods). The overlaid […] of the protonation step was determined as the intersection of the linear regression line obtained by plotting the observed enthalpies of the studied ligands (ΔH^0obs) against the heat of ionization of the corresponding buffers (ΔH^0ion) (Fig 9a). […] The examined inhibitors 2 and 5, on average receive 0.61 ± 0.04 protons per mole of the formed complex, which is in reasonable agreement with the results obtained for 1 (0.89) and similar compounds [29].
ITC measurements were performed using a Microcal ITC200 calorimeter system from GE Healthcare. Z. mobilis TGT was dissolved in the ITC buffer (50 mM HEPES/Tricin/TRIS pH 7.8, 200 mM NaCl, 0.037% (v/v) Tween 20 and 3% (v/v) DMSO) to a final concentration of 10–20 μM.
The inhibitors were first dissolved in 100% (v/v) DMSO and diluted with the buffer solution to a final DMSO concentration of 3% (v/v). The concentration of the inhibitor in the syringe was adjusted to 200–300 μM with the ITC buffer. The reference cell contained filtered demineralized water. […] The initial delay before the injections were started was adjusted to 180–300 s and the spacing between each injection to 150–180 s. The first injection contained 0.3–0.6 μL of the inhibitor solution followed by injections of 1.0–2.4 μL until a saturation occurred. A stirring speed of 750 rpm was chosen. Raw data were collected as released heat per time. The direct titrations were done in three different buffers (HEPES/Tricin/TRIS) to correct for the overlaid protonation effect as previously described.The measured ΔH^0obs were plotted on the ordinate and the ionization enthalpy of the corresponding buffer ΔH^0ion on the abscissa (Fig 9). The positive slope of the linear regression line indicates how many protons per mole of formed complex are entrapped.
For estimation of binding affinity (Kd), Z. mobilis TGT was incubated with 90–100% saturation of inhibitor 3. Protein saturation was calculated according Rühmann et al. (2015). Inhibitor 1 as strong titrant was used to displace inhibitor 3.
For analysis of the raw data, peak integration, model fitting and evaluation, the programs NITPIC [57] and SEDPHAT [58] were used. The initial injection peak was removed and the areas of the remaining peaks were integrated. The correction of the heats of dilution was conducted by subtraction of the final constant injection peak area integrals. The A+B ↔ AB hetero-association model (1:1 stoichiometry) was applied, whereby ΔH^0 and Kd were directly obtained. The ΔG^0 and -TΔS^0 values were calculated using a temperature of 298.15 K. For illustration of the integrated raw data and the ITC isotherms, the program GUSSI was used. Obtained thermodynamic data per buffer are reported as mean values averaged over at least three measurements.

[3] = Ligand dilution in native MS buffer (precipitation); format: physicochemical; details: 1 M NH4Ac pH 7.5
[4] = HEPES buffer, Gibbs-Helmholtz equation
[5] = TRIS buffer, Gibbs-Helmholtz equation
[6] = Tricin buffer, Gibbs-Helmholtz equation

T2 sequence (P28720 whole entry): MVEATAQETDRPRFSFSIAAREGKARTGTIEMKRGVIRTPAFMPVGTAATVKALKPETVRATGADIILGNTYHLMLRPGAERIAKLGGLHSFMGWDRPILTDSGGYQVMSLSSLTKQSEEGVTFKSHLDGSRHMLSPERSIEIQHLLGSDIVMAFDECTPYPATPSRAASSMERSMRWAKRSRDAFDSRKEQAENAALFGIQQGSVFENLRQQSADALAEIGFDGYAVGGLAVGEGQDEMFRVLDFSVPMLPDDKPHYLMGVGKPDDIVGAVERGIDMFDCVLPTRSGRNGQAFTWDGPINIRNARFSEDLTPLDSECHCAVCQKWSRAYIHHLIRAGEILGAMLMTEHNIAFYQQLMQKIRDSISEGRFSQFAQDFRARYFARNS

CNc1nc2c(CC[C@H]3O[C@@H](OC)[C@H](O)[C@@H]3O)c3nc(N)[nH]c(=O)c3cc2[nH]1 [Inhibitor 2]
Relative proportion of TGT monomers (TGT homodimer): 5.3%
effect on TGT dimer stability / monomer proportion, in words (TGT homodimer): No effect on dimer stability
Ki (Z. mobilis TGT [1]): 217 ± 81 nM
Ki / affinity as described in words (Z. mobilis TGT [1]): three-digit nanomolar
ΔH^0obs (Z. mobilis TGT [2]; HEPES buffer): -9.61 ± 0.526 kcal/mol
-TΔS^0 (Z. mobilis TGT [2]; [4]): 0.574 ± 0.502 kcal/mol
thermodynamic binding signature in words (Z. mobilis TGT [2]): more enthalpically favored binder
Kd (Z. mobilis TGT [2]): 275 ± 49 nM
ΔG^0 (Z. mobilis TGT [2]): -9.06 ± 0.096 kcal/mol
ΔH^0obs (Z. mobilis TGT [2]; TRIS buffer): -5.62 ± 0.478 kcal/mol
-TΔS^0 (Z. mobilis TGT [2]; [5]): -3.37 ± 0.382 kcal/mol
ΔH^0obs (Z. mobilis TGT [2]; Tricin buffer): -8.51 ± 0.765 kcal/mol
-TΔS^0 (Z. mobilis TGT [2]; [6]): -0.645 ± 0.645 kcal/mol
-TΔS^0 (Z. mobilis TGT [2]; ionization corrected): 3.8 kcal/mol
ΔH^0bind (Z. mobilis TGT [2]): -12.9 kcal/mol
-TΔΔS^0 (Z. mobilis TGT [2]; ionization corrected): -8.63 kcal/mol
ΔΔH^0 (Z. mobilis TGT [2]; ionization corrected): 9.49 kcal/mol
protons picked up during binding (Z. mobilis TGT [2]): 0.61 ± 0.04 protons per mole of the formed complex

CNc1nc2c(CC[C@H]3O[C@@H](OC)[C@H](O)[C@@H]3OC)c3nc(N)[nH]c(=O)c3cc2[nH]1 [Inhibitor 3]
Relative proportion of TGT monomers (TGT homodimer): 9.6%
effect on TGT dimer stability / monomer proportion, in words (TGT homodimer): slightly increased proportion of TGT monomer
Ki / affinity as described in words (Z. mobilis TGT [1]): submicromolar; also recorded: three-digit nanomolar
heat signal in ITC, direct titration of ligand to TGT (Z. mobilis TGT [2]; HEPES, Tricin, TRIS buffers, also up to 308 K in HEPES): no heat effects at all could be detected; also recorded: no detectable heat signal
thermodynamic binding signature in words (Z. mobilis TGT [2]): overwhelmingly entropy-driven; also recorded: pure entropically-driven binding signature
heat signal in ITC displacement titration (Z. mobilis TGT [2]; TGT 100% saturated with 3, 1 as titrant, HEPES): again no heat signal was recorded
binding constant from ITC displacement experiments, in words (Z. mobilis TGT [2]; TGT saturated about 90% with 3, 1 as titrant): falls close to that of 1

CNc1nc2c(CCNCC3CCCC3)c3nc(N)[nH]c(=O)c3cc2[nH]1 [Inhibitor 5]
Relative proportion of TGT monomers (TGT homodimer): 4.2%
effect on TGT dimer stability / monomer proportion, in words (TGT homodimer): No effect on dimer stability
Ki (Z. mobilis TGT [1]): 2 ± 1 nM
Ki / affinity as described in words (Z. mobilis TGT [1]): single-digit nanomolar
ΔH^0obs (Z. mobilis TGT [2]; HEPES buffer): -12 ± 0.813 kcal/mol
-TΔS^0 (Z. mobilis TGT [2]; [4]): 1.48 ± 0.884 kcal/mol
Kd (Z. mobilis TGT [2]): 32 ± 9 nM
ΔG^0 (Z. mobilis TGT [2]): -10.3 ± 0.19 kcal/mol
ΔH^0obs (Z. mobilis TGT [2]; TRIS buffer): -8.2 ± 0.526 kcal/mol
-TΔS^0 (Z. mobilis TGT [2]; [5]): -1.98 ± 0.335 kcal/mol
ΔH^0obs (Z. mobilis TGT [2]; Tricin buffer): -10.3 ± 0.98 kcal/mol
-TΔS^0 (Z. mobilis TGT [2]; [6]): 0.12 ± 0.789 kcal/mol
-TΔS^0 (Z. mobilis TGT [2]; ionization corrected): 4.49 kcal/mol
ΔH^0bind (Z. mobilis TGT [2]): -14.8 kcal/mol
-TΔΔS^0 (Z. mobilis TGT [2]; ionization corrected): -7.93 kcal/mol
ΔΔH^0 (Z. mobilis TGT [2]; ionization corrected): 7.58 kcal/mol
protons picked up during binding (Z. mobilis TGT [2]): 0.61 ± 0.04 protons per mole of the formed complex

CNc1nc2c(CCNCC3CCCCC3)c3nc(N)[nH]c(=O)c3cc2[nH]1 [Inhibitor 6]
Relative proportion of TGT monomers (TGT homodimer): 2.5%
effect on TGT dimer stability / monomer proportion, in words (TGT homodimer): did not exert any influence on dimer stability
precipitation upon ligand dilution in buffer [3]: partial precipitation; also recorded: apparent precipitation
Ki / affinity as described in words (Z. mobilis TGT [1]): single-digit nanomolar

COc1ccc(CCc2c3nc[nH]c3cc3c(=O)[nH]c(N)nc23)cc1 [Inhibitor 7]
Relative proportion of TGT monomers (TGT homodimer): 9.4%
effect on TGT dimer stability / monomer proportion, in words (TGT homodimer): slightly increased proportion of TGT monomer

Cc1ccc(CCc2c3nc[nH]c3cc3c(=O)[nH]c(N)nc23)cc1 [Inhibitor 8]
Relative proportion of TGT monomers (TGT homodimer): 7.1%
effect on TGT dimer stability / monomer proportion, in words (TGT homodimer): slightly increased proportion of TGT monomer

Nc1nc2c(CCc3ccccc3)c3nc[nH]c3cc2c(=O)[nH]1 [Inhibitor 9]
Relative proportion of TGT monomers (TGT homodimer): 12.6%
effect on TGT dimer stability / monomer proportion, in words (TGT homodimer): slightly increased proportion of TGT monomer; also recorded: most significant increase of normalized monomer proportion

Nc1nc2cc3nc[nH]c3cc2c(=O)[nH]1 [lin-benzoguanine, reference compound]
Ki (Z. mobilis TGT [1]): 4100 ± 1000 nM

Source: paper PMC5395182, “Soaking suggests “alternative facts”: Only co-crystallization discloses major ligand-induced interface rearrangements of a homodimeric tRNA-binding protein indicating a novel mode-of-inhibition” (PLoS ONE, 2017)
